{
  "source": "patent US20050192279A1",
  "about": "“Pyridazinones as antagonists of alpha4 integrins” (priority 2004, published 2005)",
  "key": {"circulating leukocytes": {"tested_on": "circulating leukocytes", "assay": "In Vivo Model for Leukocytosis", "set-up": "species or system Balb/c mice", "conditions": "bled 1-1.5 h after administration", "description": "In Vivo Model for Leukocytosis\nLeukocytosis is the increase in circulating white blood cells (leukocytes). This can be brought about by preventing leukocyte binding to counter-receptor adhesion molecules expressed on high endothelial venules. This cell adhesion occurs between immunoglobulin superfamily molecules and integrins. Relevant examples of these paired interactions include […] Adhesion Molecule-1 and AlphaL Beta2 integrin, Vascular Cell Adhesion Molecule-1 and α4β1 integrin, and Mucosal Addressin Cell Adhesion Molecule-1 and α4β7 integrin, respectively.\nIn this model, a compound that antagonizes these leukocyte-endothelial interactions will cause an increase in circulating leukocytes, defined as leukocytosis, as measured at 1-1.5 h post-administration. This leukocytosis is indicative that normal lymphocyte or leukocyte emigration from the peripheral circulation was prevented. Similar emigration of cells out of the circulation into inflamed tissues is responsible for the progression and maintainance of the inflammatory state. Leukocytosis is an indication that lymphocyte and leukocyte extravasation is prevented, and is predictive of general anti-inflammatory activity.\nOne week prior to being tested, 7-10 week old female Balb/c mice, n=8 per group, were bled and randomized according to leukocyte counts. One week later, the mice were adminstered test compound orally or subcutaneously and then bled 1-1.5 h after drug administration, approximately 1 h after the peak blood concentration of the compound occurred. Whole blood, 250-350 microliters, was collected from each mouse into potassium-EDTA serum collection tubes (Becton-Dickenson) and mixed to prevent clotting.\nCell counts and differential counts on the whole blood preparation were performed using an Advia 120 Hematology System (Bayer Diagnostics). Cell counts as total leukocytes and as total lympohcytes were made and compared to counts made from mice dosed with vehicle only. Data were reported as percent of vehicle control for lymphocyte counts and total leukocyte counts.\nStatistical analyses were performed using ANOVA with Dunnet's multiple comparison test."}, "[1]": {"tested_on": "eosinophil peroxidase levels in ear punches", "assay": "PMA-Induced Inflammation in Mouse Ear Skin and Measurement of Eosinophil Peroxidase", "assay_type": "in vivo, BALB/C mice", "conditions": "total dose 40 mg/kg po bid; ear punches 24 h after PMA", "experimental": "Phorbol 12-Myristate 13-Acetate (PMA)-Induced Inflammation in Mouse Ear Skin and Measurement of Eosinophil Peroxidase\nPhorbol 12-myristate 13-acetate (PMA) when applied to skin, generates a vigorous recruitment of immune cells to the site of application. Over a 24 hour period, there is accumulation of fluid and cells to the inflamed site, and thus is a general indicator of an inflammatory response. Among the recruited cells are eosinophils and neutrophils. Eosinophils can migrate into an inflamed or infected tissue via alpha 4 beta 1 integrin interactions with vascular cell adesion molecule-1 (VCAM-1) counter-receptors on vascular endothelial cells, and via alpha 4 beta 7 integrin to mucosal addressin cellular adhesion molecule on vascular endothelial cells in the gastrointestinal tract and mesenteric system. The recruited esoinophils can be quantified by measuring the presence of eosinophil peroxidase in a sample of the homogenized tissue.\nFemale BALB/C mice are ordered at 6 weeks of age and 16-18 grams from Charles River were used between 6-10 weeks of age. The animals were randomly assigned to groups of 10 (5/box) and housed in groups in plastic cages in a room with 12 h light-dark cycle and controlled temperature and humidity. They received food and water ad libitum.\nPhorbol 12-myristate 13-acetate (PMA) was dissolved as 5 mg per mL stock in dimethyl sulfoxide (DMSO) and stored frozen as 20 microliter aliquots. For application to mouse ears, each aliquot was diluted in 2 mL with acetone.\nThe right ear of each mouse was treated topically with 20 microliters of acetone solution (10 microliters to each side of the ear) containing either 1 microgram of phorbol 12-myristate 13-acetate (PMA) or acetone alone.\nDrugs that were tested orally were administered at −1 and +3 hours relative to PMA application.\nMice were sacrificed 24 h after PMA application. The right ear was punched with a 6 mm tissue punch and the tissue was placed in a tube on dry ice and kept frozen until extraction.\nOne tablet of phosphate citrate buffer was dissolved with urea hydrogen peroxide in 100 ml of water in which one tablet containing 60 mg of o-phenylenediaminedihydrochloride was added.\nEar tissue samples were homogenized in 2 ml of HTAB for 15 sec at speed 5.5 with a Polytron (large head) (Brinkman Instruments). The homogenate was stored at −20° C. until assayed. […]\nSamples were typically tested at either a 1:2 or 1:4 dilution made with HTAB. […] Absorbance was read at 490 nm for the specific with subtraction of a 650 nm noise signal using a Thermomax 96-well spectrophotmetric plate reader (Molecular Devices). […]\nThe inhibition of PMA-induced ear edema was measured by eosinophil peroxidase levels in ear punches. […]"}},
  "data": [
    {"compound": "COc1cnn(C)c(=O)c1-c1ccc(C[C@H](NC(=O)c2c(Cl)cccc2Cl)C(=O)O)cc1", "note": "[Cpd 17]", "values": [
      {"measurement": "Lymphoycte Counts % of Vehicle Control", "setting": "circulating leukocytes; 3 mg/kg sc", "value": 145.3, "unit": "%"},
      {"measurement": "Total Leukocyte Count % of Vehicle Control", "setting": "circulating leukocytes; 3 mg/kg sc", "value": 143.3, "unit": "%"},
      {"measurement": "Lymphoycte Counts % of Vehicle Control", "setting": "circulating leukocytes; 10 mg/kg sc", "value": 191.7, "unit": "%"},
      {"measurement": "Total Leukocyte Count % of Vehicle Control", "setting": "circulating leukocytes; 10 mg/kg sc", "value": 198.7, "unit": "%"},
      {"measurement": "Lymphoycte Counts % of Vehicle Control", "setting": "circulating leukocytes; 30 mg/kg sc", "value": 220.2, "unit": "%"},
      {"measurement": "Total Leukocyte Count % of Vehicle Control", "setting": "circulating leukocytes; 30 mg/kg sc", "value": 264.5, "unit": "%"},
      {"measurement": "% Inh. of Eosinophil Peroxidase", "setting": "[1]", "value": 34.9, "unit": "%"}
    ]},
    {"compound": "COc1cnn(C)c(=O)c1-c1ccc(C[C@H](NC(=O)[C@@H]2C3CCC(CC3)N2C(=O)CCc2ccccc2)C(=O)O)cc1", "note": "[Cpd 89, 3-[4-(5-Methoxy-2-methyl-3-oxo-2,3-dihydro-pyridazin-4-yl)-phenyl]-2(S)-{[2-(3-phenyl-propionyl)-2-aza-bicyclo[2.2.2]octane-3(S)-carbonyl]-amino}-propionic acid]", "values": [
      {"measurement": "% Inh. of Eosinophil Peroxidase", "setting": "[1]", "value": 43.5, "unit": "%"}
    ]},
    {"compound": "COc1cnn(CCO)c(=O)c1-c1ccc(C[C@H](NC(=O)OC(C)(C)C)C(=O)O)cc1", "note": "[Cpd 120]", "values": [
      {"measurement": "Lymphoycte Counts % of Vehicle Control", "setting": "circulating leukocytes; 3 mg/kg sc", "value": 104.3, "unit": "%"},
      {"measurement": "Total Leukocyte Count % of Vehicle Control", "setting": "circulating leukocytes; 3 mg/kg sc", "value": 91.8, "unit": "%"},
      {"measurement": "Lymphoycte Counts % of Vehicle Control", "setting": "circulating leukocytes; 10 mg/kg sc", "value": 112.8, "unit": "%"},
      {"measurement": "Total Leukocyte Count % of Vehicle Control", "setting": "circulating leukocytes; 10 mg/kg sc", "value": 101.7, "unit": "%"},
      {"measurement": "Lymphoycte Counts % of Vehicle Control", "setting": "circulating leukocytes; 30 mg/kg sc", "value": 80.0, "unit": "%"},
      {"measurement": "Total Leukocyte Count % of Vehicle Control", "setting": "circulating leukocytes; 30 mg/kg sc", "value": 78.0, "unit": "%"}
    ]},
    {"compound": "COC(=O)[C@H](Cc1ccc(-c2c(OC)cnn(C)c2=O)cc1)NC(=O)c1c(Cl)cccc1Cl", "note": "[Cpd 151]", "values": [
      {"measurement": "% Inh. of Eosinophil Peroxidase", "setting": "[1]", "value": 26.5, "unit": "%"}
    ]}
  ]
}
